Columns and labels:
Type in all cases: in vivo
[1] = system: Puccinia recondita f. sp. tritici; test: Test E1: wheat seedlings inoculated with Puccinia recondita f. sp. tritici (wheat leaf rust), sprayed afterwards, visual disease rating; details: 200 ppm test suspension, sprayed after inoculation
Source text: (§1) General protocol for preparing test suspensions for Tests A-F: the test compounds were first dissolved in acetone in an amount equal to 3% of the final volume and then suspended at the desired concentration (in ppm) in acetone and purified water (50/50 mix) containing 250 ppm of the surfactant Trem® 014 (polyhydric alcohol esters). The resulting test suspensions were then used in Tests A-F. Spraying a 200 ppm test suspension to the point of run-off on the test plants was the equivalent of a rate of 500 g/ha. An asterisk “*” next to the rating value indicates a 40 ppm test suspension.
Wheat seedlings were inoculated with a spore suspension of Puccinia recondita f. sp. tritici (the causal agent of wheat leaf rust) and incubated in a saturated atmosphere at 20° C. for 24 h, and then moved to a growth chamber at 20° C. for 2 days. At the end of this time the test suspension was sprayed to the point of run-off on the wheat seedlings, and then the seedlings were moved to a growth chamber at 20° C. for 6 days, after which time visual disease ratings were made.
(§2) Results for Tests A-F are given in Table A. In the Table, a rating of 100 indicates 100% disease control and a rating of 0 indicates no disease control (relative to the controls). A dash (-) indicates no test results. All results are for 200 ppm except where followed by “*”, which indicates 40 ppm.

[2] = system: Alternaria solani; test: Test B: tomato seedlings sprayed, next day inoculated with Alternaria solani (tomato early blight), visual disease rating; details: sprayed day before inoculation; for pest or weed control at 200 ppm / pest or weed control at 40 ppm: Alternaria solani; for pest or weed control at 200 ppm / Test B rating (disease control): 200 ppm test suspension; for pest or weed control at 40 ppm: 40 ppm test suspension (*)
Source text: as §1
(§3) The test suspension was sprayed to the point of run-off on tomato seedlings. The following day the seedlings were inoculated with a spore suspension of Alternaria solani (the causal agent of tomato early blight) and incubated in a saturated atmosphere at 27° C. for 48 h, and then moved to a growth chamber at 20° C. for 5 days, after which time visual disease ratings were made.
as §2

[3] = system: Septoria nodorum; test: Test C: wheat seedlings sprayed, next day inoculated with Septoria nodorum (wheat glume blotch), visual disease rating; details: sprayed day before inoculation; for pest or weed control at 200 ppm / pest or weed control at 40 ppm: Parastagonospora nodorum; for pest or weed control at 200 ppm / Test C rating (disease control): 200 ppm test suspension; for pest or weed control at 40 ppm: 40 ppm test suspension (*)
Source text: as §1
as §3, with “wheat” for “tomato”, “Septoria nodorum” for “Alternaria solani”, “wheat glume blotch)” for “tomato early blight)”, “24°” for “27°”, “6” for “5”
as §2

[4] = system: Erysiphe graminis; test: Test F: wheat seedlings sprayed, next day inoculated with Erysiphe graminis (wheat powdery mildew), visual disease rating; details: sprayed day before inoculation; for pest or weed control at 200 ppm / pest or weed control at 40 ppm: Blumeria graminis; for pest or weed control at 200 ppm / Test F rating (disease control): 200 ppm test suspension; for pest or weed control at 40 ppm: 40 ppm test suspension (*)
Source text: as §1
The test suspension was sprayed to the point of run-off on wheat seedlings. The following day the seedlings were inoculated with a spore dust of Erysiphe graminis, (the causal agent of wheat powdery mildew) and incubated in a growth chamber at 20° C. for 8 days, after which time visual disease ratings were made.
as §2

[5] = system: Botrytis cinerea; test: Test A: tomato seedlings sprayed, next day inoculated with Botrytis cinerea (tomato Botrytis), visual disease rating; details: sprayed day before inoculation; for pest or weed control at 200 ppm / pest or weed control at 40 ppm: Botrytis cinerea; for pest or weed control at 200 ppm / Test A rating (disease control): 200 ppm test suspension; for pest or weed control at 40 ppm: 40 ppm test suspension (*)
Source text: as §1
as §3, with “Botrytis cinerea” for “Alternaria solani”, “Botrytis)” for “early blight)”, “in” for “in a”, “20°” for “27°”, “24°” for “20°”, “3” for “5”
as §2

[6] = system: Septoria tritici; test: Test D: wheat seedlings sprayed, next day inoculated with Septoria tritici (wheat leaf blotch), visual disease rating; details: sprayed day before inoculation; for pest or weed control at 200 ppm / pest or weed control at 40 ppm: Zymoseptoria tritici; for pest or weed control at 200 ppm / Test D rating (disease control): 200 ppm test suspension; for pest or weed control at 40 ppm: 40 ppm test suspension (*)
Source text: as §1
as §3, with “wheat” for “tomato”, “Septoria tritici” for “Alternaria solani”, “wheat leaf blotch)” for “tomato early blight)”, “in” for “in a”, “24°” for “27°”, “19” for “5”
as §2

[7] = system: Puccinia recondita f. sp. tritici; test: Test E2: wheat seedlings sprayed, next day inoculated with Puccinia recondita f. sp. tritici (wheat leaf rust), visual disease rating; details: sprayed day before inoculation; for pest or weed control at 200 ppm / pest or weed control at 40 ppm: Puccinia recondita; for pest or weed control at 200 ppm / Test E2 rating (disease control): 200 ppm test suspension; for pest or weed control at 40 ppm: 40 ppm test suspension (*)
Source text: as §1
The test suspension was sprayed to the point of run-off on wheat seedlings. The following day the seedlings were inoculated with a spore suspension of Puccinia recondita f. sp. tritici (the causal agent of wheat leaf rust) and incubated in a saturated atmosphere at 20° C. for 24 h, and then moved to a growth chamber at 20° C. for 7 days, after which time visual disease ratings were made.
as §2

SMILES	Test B rating (disease control) [2]	Test C rating (disease control) [3]	Test F rating (disease control) [4]	Test A rating (disease control) [5]	Test D rating (disease control) [6]	Test E2 rating (disease control) [7]	Test E1 rating (disease control) [1]	also measured
COc1cc(OC)cc(-c2cnnc(Cl)c2-c2c(F)cc(F)cc2F)c1 [Compound 5, 3-chloro-5-(3,5-dimethoxyphenyl)-4-(2,4,6-trifluorophenyl)pyridazine]	–	–	–	–	–	–	–	pest or weed control at 200 ppm ([1]; Puccinia recondita): 99%; pest or weed control at 200 ppm [2]: 100%; pest or weed control at 200 ppm [3]: 100%; pest or weed control at 200 ppm [4]: 100%; pest or weed control at 200 ppm [5]: 99%; pest or weed control at 200 ppm [6]: 98%; pest or weed control at 200 ppm [7]: 100%
COc1cc(OC)cc(-c2c(Cl)nnc(C)c2-c2c(F)cc(F)cc2F)c1 [Compound 12, 3-chloro-4-(3,5-dimethoxyphenyl)-6-methyl-5-(2,4,6-trifluorophenyl)pyridazine]	–	–	–	–	–	–	–	pest or weed control at 40 ppm [2]: 100%; pest or weed control at 40 ppm [3]: 99%; pest or weed control at 40 ppm [4]: 100%; pest or weed control at 40 ppm [5]: 99%; pest or weed control at 40 ppm [6]: 99%; pest or weed control at 40 ppm [7]: 100%
COc1cc(OC)cc(-c2c(Cl)nnc(C)c2-c2ccc(F)cc2)c1 [Compound 13]	0%	0%	39%	8%	45%	19%	–	–
COc1ccc(-c2c(C)nnc(C(C)=O)c2-c2cc(OC)cc(OC)c2)cc1 [Compound 14]	0%	0%	84%	99%	99%	95%	16%	–
COc1cc(OC)cc(-c2c(C)nnc(Cl)c2-c2c(F)ccc(F)c2F)c1 [Compound 15, 3-chloro-5-(3,5-dimethoxyphenyl)-6-methyl-4-(2,3,6-trifluorophenyl)pyridazine]	–	–	–	–	–	–	–	pest or weed control at 200 ppm [2]: 100%; pest or weed control at 200 ppm [3]: 84%; pest or weed control at 200 ppm [4]: 99%; pest or weed control at 200 ppm [5]: 100%; pest or weed control at 200 ppm [6]: 99%; pest or weed control at 200 ppm [7]: 100%
COc1cc(OC)cc(-c2c(C(C)C)nnc(Cl)c2-c2c(F)cc(F)cc2F)c1 [Compound 16]	99%	92%	100%	99%	99%	100%	100%	–
COc1cc(OC)cc(-c2c(C)nnc(C)c2-c2c(F)ccc(F)c2F)c1 [Compound 17, 4-(3,5-dimethoxyphenyl)-3,6-dimethyl-5-(2,3,6-trifluorophenyl)pyridazine]	–	–	–	–	–	–	–	pest or weed control at 200 ppm [2]: 100%; pest or weed control at 200 ppm [3]: 99%; pest or weed control at 200 ppm [4]: 100%; pest or weed control at 200 ppm [5]: 100%; pest or weed control at 200 ppm [6]: 99%; pest or weed control at 200 ppm [7]: 100%
COc1cc(OC)cc(-c2c(C(C)C)nnc(C)c2-c2c(F)cc(F)cc2F)c1 [Compound 18]	99%	82%	100%	100%	99%	100%	100%	–
COc1cc(OC)cc(-c2c(C(C)(C)O)nnc(C)c2-c2c(F)cc(F)cc2F)c1 [Compound 21, 4-(3,5-dimethoxyphenyl)-α,α,6-trimethyl-5-(2,4,6-trifluorophenyl)-3-pyridazinemethanol]	–	–	–	–	–	–	–	pest or weed control at 40 ppm [2]: 99%; pest or weed control at 40 ppm [3]: 40%; pest or weed control at 40 ppm [4]: 100%; pest or weed control at 40 ppm [5]: 100%; pest or weed control at 40 ppm [6]: 98%; pest or weed control at 40 ppm [7]: 100%
COc1cc(OC)c(Cl)c(-c2c(C)nnc(Cl)c2-c2c(F)cc(F)cc2F)c1 [Compound 23, 3-chloro-5-(2-chloro-3,5-dimethoxyphenyl)-6-methyl-4-(2,4,6-trifluoro-phenyl)pyridazine]	–	–	–	–	–	–	–	pest or weed control at 40 ppm [2]: 100%; pest or weed control at 40 ppm [3]: 100%; pest or weed control at 40 ppm [4]: 100%; pest or weed control at 40 ppm [5]: 100%; pest or weed control at 40 ppm [6]: 100%; pest or weed control at 40 ppm [7]: 100%
COc1cc(OC)c(Cl)c(-c2c(C)nnc(Cl)c2-c2c(F)cccc2F)c1 [Compound 28]	100%	78%	100%	100%	100%	100%	–	–
COc1cc(OC)cc(-c2c(C)nnc(C)c2-c2c(F)cccc2F)c1 [Compound 31]	99%	100%	98%	100%	100%	99%	–	–
COc1cc(OC)c(Cl)c(-c2c(C)nnc(C)c2-c2c(F)cccc2F)c1Cl [Compound 34]	0%	0%	97%	100%	100%	100%	–	–
COc1cc(OC)cc(-c2c(C)nnc(F)c2-c2c(F)cccc2Cl)c1 [Compound 47]	100%	99%	99%	–	–	99%	100%	–
COc1cc(OC)cc(-c2c(C)nnc(Cl)c2-c2ccc(F)cc2Cl)c1 [Compound 48]	100%	0%	97%	–	–	99%	0%	–
COc1cc(OC)c(Cl)c(-c2c(C)nnc(C)c2-c2ccc(F)cc2F)c1 [Compound 49]	99%	99%	100%	–	–	100%	100%	–
COc1cc(-c2c(C)nnc(C)c2-c2ccc(F)cc2F)cc(OC)c1Cl [Compound 50]	100%	100%	100%	–	–	100%	100%	–
COc1cc(OC)c(Cl)c(-c2c(C)nnc(F)c2-c2ccc(F)cc2F)c1 [Compound 51]	100%	0%	99%	99%	–	100%	0%	–
COc1cc(OC)cc(-c2c(C)nnc(C)c2-c2ccc(F)cc2Cl)c1 [Compound 52]	94%	87%	99%	99%	–	100%	9%	–
COc1cc(OC)c(Cl)c(-c2c(C)nnc(Cl)c2-c2ccc(F)cc2Cl)c1 [Compound 53]	99%	98%	100%	99%	–	100%	98%	–
